Measured values: patent publication US20080261891A1, “COMPOSITIONS AND METHODS FOR USING SYRINGOPEPTIN 25A AND RHAMNOLIPIDS” (Utah State University, priority 2007, published 2008)
Values after ≈ are worked out from the molar mass of the structure shown. “Also recorded” adds a separate entry of the source. Where a SMILES comes first, the peptide text is derived from it. Bridges are numbered along the chain shown (N, C = ends). [ ]: non-standard residue; d: D form. The star is where a group is joined. ξ: configuration not given here. Decanoyl(3ξ-OH) = CCCCCCCC(O)CC(=O)*; Dab = NCC[CH](N)C(=O)O; Dhb = C/C=C(\N)C(=O)O

Tests used:
Format in all cases: cell-based
[1] = test system: Listeria monocytogenes EGDe; experiment: Cell growth (cell density, OD600) during treatment over 120 min
Method: FIG. 6B includes a graph that illustrates the amount of cell growth in response to being treated with SP 25A, RLs and saline (control) over a period of 120 min. […] The lack of positive correlation between membrane permeabilization (FIG. 6A) and inhibition of cell growth (FIG. 6B) of SP 25A inferred that the pore forming model alone was not be responsible for all of the antimicrobial properties of SP 25A.
Listeria monocytogenes EGDe was thawed and subcultured twice at 37° C. in brain heart infusion broth (BHI) (DIFCO, Franklin Lanes, N.J.). An overnight culture was diluted 10 fold in sterile medium and grown for 4 h to an OD600 of 1.7, which corresponded to ˜10^9 cfu/mL. The cell preparation was exposed to either 3 μg/mL SP 25A or 6 μg/mL RLs. Treatment with both RLs and SP 25A caused membrane permeabilization (FIG. 6A), but each reduced cell growth (FIG. 6B) of L. monocytogenes by different amounts. […]
Total RNA was extracted from a 1.8 mL culture immediately before treating the cells with SP 25A and RLs (T0), after 30 min (T30), and at 120 min (T120) of exposure at 37° C. Simultaneously, the cell density was measured at OD600. Membrane permeabilization was determined by measuring the PI uptake. […] Each well contained five probes for each open reading frame in the entire genome.

[2] = test system: Streptococcus suis; experiment: Inhibition rate (IR), propidium iodide uptake
Method: (§1) The antimicrobial action for each compound was initially determined by the rate of uptake of propidium iodide (Fluoropure grade, Molecular Probes, Inc., Eugene, Oreg.) as previously described (Haughland, R. P., 2002, Handbook of fluorescent probes and research chemicals, 9th ed. Molecular Probes, Inc., Eugene, Oreg.). Briefly, all cultures were grown overnight in their respective optimal growth medium and temperature from freezer vials (Table 1). Each culture was sub-cultured twice, harvested in mid-log phase, washed with saline, and adjusted to an appropriate concentration by measuring the optical density at 600 nm. PI, with an excitation wavelength of 535 and an emission wavelength of 617, was added to the culture suspension at a final concentration of 10 μM. Each organism was treated with 50 μg/mL SP 25A and 60 μg/mL of the RL mixture in a final volume of 2.2 mL. The increase in fluorescence was measured with a Shimadzu RF 1501 spectrophotofluorometer at 15 s intervals for a maximum period of 120 min. Saline was added in place of SP 25A or RLs as a negative control. All inhibition experiments were done in replicate.
(§2) The rate of antimicrobial action was expressed as the inhibition rate (“IR”). Curve fitting was done using OriginPro version 7.0 (Natick, Mass.). IR=((Log RFU/(Time))−C)/Time (when d Log RFU/dT>0). Where RFU=relative fluorescent units; and C=Y intercept.

[3] = test system: Lactobacillus plantarum; experiment: Inhibition rate (IR), propidium iodide uptake
Method: as §1, §2

[4] = test system: Clostridium sporogenes; experiment: Inhibition rate (IR), propidium iodide uptake
Method: as §1, §2

[5] = test system: Bacillus megaterium; experiment: Inhibition rate (IR), propidium iodide uptake
Method: as §1, §2

[6] = test system: Erwinia herbicola; experiment: Inhibition rate (IR), propidium iodide uptake
Method: as §1, §2

[7] = test system: Salmonella typhimurium; experiment: Inhibition rate (IR), propidium iodide uptake
Method: as §1, §2

[8] = test system: Listeria monocytogenes; experiment: Inhibition rate (IR), propidium iodide uptake
Method: as §1, §2

[9] = test system: Staphylococcus aureus subsp. aureus; experiment: Inhibition rate (IR), propidium iodide uptake
Method: as §1, §2

[10] = test system: Micrococcus luteus; experiment: Inhibition rate (IR), propidium iodide uptake
Method: as §1, §2

[11] = test system: Bacillus cereus; experiment: Inhibition rate (IR), propidium iodide uptake
Method: as §1, §2

[12] = test system: Klebsiella pneumoniae subsp. Pneumoniae; experiment: Inhibition rate (IR), propidium iodide uptake
Method: as §1, §2

[13] = test system: Eschereschia coli H7:0157; experiment: Inhibition rate (IR), propidium iodide uptake
Method: as §1, §2

[14] = test system: Streptococcus agalacticae; experiment: Inhibition rate (IR), propidium iodide uptake
Method: as §1, §2

[15] = test system: Bacillus subtilis; experiment: Inhibition rate (IR), propidium iodide uptake
Method: as §1, §2

[16] = test system: Flavobacterium devorans; experiment: Inhibition rate (IR), propidium iodide uptake
Method: as §1, §2

[17] = test system: Aeromonas caviae; experiment: Inhibition rate (IR), propidium iodide uptake
Method: as §1, §2

[18] = test system: Lactococcus lactis subsp. Lactis; experiment: Inhibition rate (IR), propidium iodide uptake
Method: as §1, §2

[19] = test system: Bacillus subtilis (spores); experiment: MIC, microbroth dilution method (spore germination); conditions: inhibition of spore germination, 48 h
Method: (§3) The MIC of the compounds for the organisms was determined by the microbroth dilution method, described hereafter. The microorganisms were prepared as described above and resuspended in their optimal growth media (Table 1) to ˜10^5 CFU/mL containing SP 25A at 2, 3, 4, 5, 6, 7, 8, 16, 32 and 50 μg/mL in a total volume of 550 μL. RL concentrations of 2, 3, 4, 5, 6, 7, 8, 16, 32 and 60 μg/mL in a total volume of 550 μL were tested in a 48-well plate (Corning, N.Y.). The plates were incubated at optimal growth conditions for the respective organism and monitored for an increase in OD600 after 48 h by a Perkin-Elmer (HTS 7000) plate reader (Downers Grove, Ill.). […] Negative controls (no inhibition of growth) were included using saline in the assay for each compound. The lowest concentration at which there was no increase in OD over 48 h was reported as the MIC. Each MIC was determined in replicate with three separate tests per replication. The results of the three tests were averaged for each replicate.

[20] = test system: Clostridium sporogenes (spores); experiment: as above; conditions: inhibition of spore germination, 48 h
Method: as §3

C/C=C(\NC(=O)C(C)NC(=O)C(C)NC(=O)C(CC(C)C)NC(=O)C(NC(=O)C(C)NC(=O)C(C)NC(=O)C(NC(=O)C1CCCN1C(=O)/C(=C/C)NC(=O)CC(O)CCCCCCC)C(C)C)C(C)C)C(=O)NC(C(=O)N/C(=C\C)C(=O)NC(C)C(=O)NC(C(=O)NC(C)C(=O)NC(C)C(=O)N/C(=C\C)C(=O)NC1C(=O)NC(CO)C(=O)NC(C)C(=O)NC(C(C)C)C(=O)NC(C)C(=O)NC(CCN)C(=O)NC(CCN)C(=O)NC(Cc2ccc(O)cc2)C(=O)OC1C)C(C)C)C(C)C (stereo not shown) [SP 25A, syringopeptin 25A] ({Decanoyl(3ξ-OH)}-[Dhb]PVAAVLAA[Dhb]V[Dhb]AVAA[Dhb]TSAVA[Dab][Dab]Y; ester 18-C; configuration not given here)
growth of culture (cell density) ([1]; 3 μg/mL SP 25A, during 120 min, control culture grew by 15.3%): did not grow
inhibition of cell growth ([1]; in comparison to the saline control, 120 min): completely inhibited cell growth; also recorded: complete inhibition of cell growth
IR SP 25A (50 μg/mL) [2]: 0.006
IR SP 25A (50 μg/mL) [3]: 0.003
IR SP 25A (50 μg/mL) [4]: 0.008
IR SP 25A (50 μg/mL) [5]: 0.005
IR SP 25A (50 μg/mL) [6]: 0.000
IR SP 25A (50 μg/mL) [7]: 0.000
inhibition rate relative to the inhibition rate for RLs ([8]; L. monocytogenes, each compound tested by itself): approximately one-sixth
IR SP 25A (50 μg/mL) ([8]; Listeria monocytogenes, 50 μg/mL): 0.005
IR SP 25A (50 μg/mL) [9]: 0.003
IR SP 25A (50 μg/mL) [10]: 0.006
IR SP 25A (50 μg/mL) [11]: 0.004
IR SP 25A (50 μg/mL) [12]: 0.000
IR SP 25A (50 μg/mL) [13]: 0.000
IR SP 25A (50 μg/mL) [14]: 0.004
IR SP 25A (50 μg/mL) [15]: 0.006
IR SP 25A (50 μg/mL) [16]: 0.002
IR SP 25A (50 μg/mL) [17]: 0.000
IR SP 25A (50 μg/mL) [18]: 0.008
MIC [19]: 4 µg/mL (≈ 1.67 µM)
MIC [20]: 4 µg/mL (≈ 1.67 µM)
